From ChEMBL document CHEMBL1121503, “Estrogen receptor based imaging agents. 2. Synthesis and receptor binding affinity of side-chain halogenated hexestrol derivatives” (J Med Chem, 1980) come the findings set out here.

The target in the experiment is Estrogen receptor (Ovis aries) (UniProt P49885+Q9TU15).
Turning to `Oc1ccc(C(=C(C(F)(F)F)C(F)(F)F)c2ccccc2)cc1`, the RAC is 21. Turning to `CC[C@H](c1ccc(O)cc1)[C@@H](CC)c1ccc(O)cc1`, the RAC was found to be 300.

Compound `CCC(c1ccc(O)cc1)C(CCCl)c1ccc(O)cc1` (stereo not given) registered an RAC of 113. Compound `Oc1ccc(/C(=C(/c2ccc(O)cc2)C(F)(F)F)C(F)(F)F)cc1` registered an RAC of 48.

On to `Oc1ccc(/C(=C(/c2ccccc2)C(F)(F)F)C(F)(F)F)cc1`, for which the RAC came out at 10. Compound `CCC(c1ccc(O)cc1)C(CCBr)c1ccc(O)cc1` (stereo not given) displayed an RAC of 71.

The compound `CCC(c1ccc(O)cc1)C(CCI)c1ccc(O)cc1` (stereo not given) yielded an RAC of 60. In the case of `CCC(c1ccc(O)cc1)C(CCF)c1ccc(O)cc1` (stereo not given) it was 129; in that of `Oc1ccc(C(=C2CCCCC2)c2ccc(O)cc2)cc1`, 32; in that of `C/C(=C(/C)c1ccc(O)cc1)c1ccc(O)cc1`, 20.
